From ChEMBL document CHEMBL3045569, “Synthesis of allyl esters of fatty acids and their ovicidal effect on Cydia pomonella (L.)” (2009)
Converted amounts (≈) assume the structure as drawn. The source made the active and inactive calls. The rule behind the calls is not given here.

What was measured:
[1] = test system: Cydia pomonella; experiment: Ovicidal activity against <24 hr-old Cydia pomonella (codling moth) eggs assessed as corrected mortality at 0.5 mg/ml applied as 0.1 ul drop solution topically measured for 3 days; assay type: functional; conditions: topical, 72 h
[2] = test system: Cydia pomonella; experiment: Ovicidal activity against <24 hr-old Cydia pomonella (codling moth) eggs assessed as increase in duration of the development of eggs applied as 0.1 ul drop solution topically measured for 3 days; assay type: functional, organism-based
[3] = test system: Cydia pomonella; experiment: Ovicidal activity against <24 hr-old Cydia pomonella (codling moth) eggs assessed as mortality at the stage of black head development at 10 mg/ml applied as 0.1 ul drop solution topically measured for 3 days (acetone Rvb = 94.4 +/-0.1%); assay type: functional; conditions: topical, 72 h
[4] = test system: Cydia pomonella; experiment: Ovicidal activity against <24 hr-old Cydia pomonella (codling moth) eggs assessed as mortality at the stage of red ring development at 10 mg/ml applied as 0.1 ul drop solution topically measured for 3 days (acetone Rvb = 4.4 +/-0.22%); assay type: functional; conditions: topical, 72 h
[5] = test system: Cydia pomonella; experiment: Ovicidal activity against <24 hr-old Cydia pomonella (codling moth) eggs assessed as mortality at the stage of white head development at 10 mg/ml applied as 0.1 ul drop solution topically measured for 3 days (acetone Rvb = 1.1 +/-0.44%); assay type: functional; conditions: topical, 72 h
[6] = test system: Cydia pomonella; experiment: Ovicidal activity against <24 hr-old Cydia pomonella (codling moth) eggs assessed as mortality applied as 0.1 ul drop solution topically measured for 3 days; assay type: functional; conditions: for LC50: Cydia pomonella, topical, 72 h
[7] = test system: Cydia pomonella; experiment: Ovicidal activity against <24 hr-old Cydia pomonella (codling moth) eggs assessed as corrected mortality at 0.1 mg/ml applied as 0.1 ul drop solution topically measured for 3 days; assay type: functional; conditions: topical, 72 h
[8] = test system: Cydia pomonella; experiment: Ovicidal activity against <24 hr-old Cydia pomonella (codling moth) eggs assessed as corrected mortality at 1 mg/ml applied as 0.1 ul drop solution topically measured for 3 days; assay type: functional; conditions: topical, 72 h
[9] = test system: Cydia pomonella; experiment: Ovicidal activity against <24 hr-old Cydia pomonella (codling moth) eggs assessed as corrected mortality at 1.75 mg/ml applied as 0.1 ul drop solution topically measured for 3 days; assay type: functional; conditions: topical, 72 h
[10] = test system: Cydia pomonella; experiment: Ovicidal activity against <24 hr-old Cydia pomonella (codling moth) eggs assessed as corrected mortality at 2.5 mg/ml applied as 0.1 ul drop solution topically measured for 3 days; assay type: functional; conditions: topical, 72 h
[11] = test system: Cydia pomonella; experiment: Ovicidal activity against <24 hr-old Cydia pomonella (codling moth) eggs assessed as corrected mortality at 5 mg/ml applied as 0.1 ul drop solution topically measured for 3 days; assay type: functional; conditions: topical, 72 h
[12] = test system: Cydia pomonella; experiment: Ovicidal activity against <24 hr-old Cydia pomonella (codling moth) eggs assessed as corrected mortality at 7.5 mg/ml applied as 0.1 ul drop solution topically measured for 3 days; assay type: functional; conditions: topical, 72 h
[13] = test system: Cydia pomonella; experiment: Ovicidal activity against <24 hr-old Cydia pomonella (codling moth) eggs assessed as corrected mortality at 10 mg/ml applied as 0.1 ul drop solution topically measured for 3 days; assay type: functional; conditions: topical, 72 h

Row | Compound | mortality at 500 µg/mL [1] [%] | Activity [2] | mortality at 10000 µg/mL [3] [%] | mortality at 10000 µg/mL [4] [%] | mortality at 10000 µg/mL [5] [%] | LC90 [6] [µg/mL] | LC50 [6] [µg/mL] | mortality at 100 µg/mL [7] [%] | mortality at 1000 µg/mL [8] [%] | mortality at 1750 µg/mL [9] [%] | mortality at 2500 µg/mL [10] [%] | mortality at 5000 µg/mL [11] [%] | mortality at 7500 µg/mL [12] [%] | mortality at 10000 µg/mL [13] [%]
1 | CCOC(=O)NCCOc1ccc(Oc2ccccc2)cc1 [PHENOXYCARB] | 100 | – | – | – | – | – | – | – | – | – | – | – | – | –
2 | C=CCOC(=O)CCCCCCCCCCCCC [ALLYL TETRADECANOATE] | 7.5 | Active | 27.8 | 17.8 | 54.4 | 3240 (≈ 12.1 mM) | 1410 (≈ 5.25 mM) | 4.6 | 19.8 | 49.5 | 87.5 | 97.2 | 97.7 | 100
3 | C=CCOC(=O)CCC [ALLYL BUTANOATE] | 20.5 | Active | 10 | 14.4 | 75.6 | 3200 (≈ 25 mM) | 1060 (≈ 8.27 mM) | 6 | 42.7 | 72 | 83.3 | 98.7 | 100 | 100
4 | C=CCOC(=O)CCCCCCCCCCC [ALLYL DODECANOATE] | 10 | Active | 18.9 | 12.2 | 68.9 | 2340 (≈ 9.73 mM) | 1140 (≈ 4.74 mM) | 0 | 36.4 | 71.7 | 95.9 | 96.5 | 98.8 | 100
5 | C=CCOC(=O)CCCCCCC [ALLYL OCTANOATE] | 29.9 | Active | 6.7 | 13.3 | 80 | 2180 (≈ 11.8 mM) | 710 (≈ 3.85 mM) | 9.7 | 59.2 | 83.8 | 95.9 | 97.7 | 98.8 | 100
6 | C=CCOC(=O)CCCCC [ALLYL HEXANOATE] | 22.4 | Active | 18.9 | 13.3 | 67.8 | 2130 (≈ 13.6 mM) | – | 8.4 | 51.2 | 83.8 | 95.8 | 98.7 | 100 | 100
7 | C=CCOC(=O)CCCCCCCCCCCCCCCCC [ALLYL OCTADECANOATE] | 11.9 | Active | 43.3 | 13.3 | 43.3 | 7330 (≈ 22.6 mM) | 2690 (≈ 8.29 mM) | 0 | 17.3 | 32.1 | 41.6 | 82.2 | 87.2 | 100
8 | C=CCOC(=O)CCCCCCCCCCCCCCC [HEXADECANOIC ACID ALLYL ESTER] | 0 | Active | 46.7 | 24.4 | 28.9 | 7970 (≈ 26.9 mM) | 2460 (≈ 8.3 mM) | 0 | 6 | 32.6 | 66.6 | 72.2 | 87.2 | 100
9 | C=CCOC(=O)CCCCCCCCC [ALLYL DECANOATE] | 12.4 | Active | 14.4 | 16.7 | 68.9 | 2260 (≈ 10.6 mM) | 1400 (≈ 6.59 mM) | 7.4 | 30.5 | 76.3 | 97.2 | 98.7 | 100 | 100
